Test results reported in ChEMBL document CHEMBL5154770, “Discovery of novel ataxia telangiectasia mutated (ATM) kinase modulators: Computational simulation, biological evaluation and cancer combinational chemotherapy study” (Eur J Med Chem, 2022).
Activity calls are given as the source filed them. The calls are words filed in the database; no cut-off is given here.

Legend:
MCF7 [1] = assay: Induction of cell cycle arrest in human MCF7 cells assessed as accumulation of cells at S-phase measured after 24 hrs by PI staining based flow cytometric analysis; assay type: functional; settings: DDE = dose-dependent effect
MCF7 [2] = assay: Induction of apoptosis in human MCF7 cells at 62 nM in presence of 1 to 5 uM KU60019 measured after 6 days by Annexin V-FITC/propidium iodide staining based flow cytometry analysis; assay type: functional, cell-based; settings: time 6.0 day
MCF7 [3] = assay: Additive cytotoxicity against human MCF7 cells assessed as combination index in presence of 10 uM 3-Chloro-4-methoxy-N-((4-(oxazolo[4,5-b]pyridin-2-yl)phenyl)carbamothioyl)benzamide measured after 6 days by SRB assay; assay type: functional; settings: time 6 day
MCF7 [4] = assay: Antagonistic cytotoxicity against human MCF7 cells assessed as combination index measured after 2 days in presence of 5 uM KU55933 by SRB assay; assay type: functional; settings: time 2 day
MCF7 [5] = assay: cells; settings: Homo sapiens, MCF7, 144 h
[6] = biological target: T1, Serine-protein kinase ATM (Homo sapiens, UniProt Q13315); assay: Inhibition of ATM (unknown origin) assessed as decrease in phosphorylation of p21 at 25 uM measured in presence of 1 uM KU60019 by Western blot analysis
MCF7 [7] = assay: Induction of apoptosis in human MCF7 cells at 62 nM in presence of 50 nM AZD0156 measured after 6 days by Annexin V-FITC/propidium iodide staining based flow cytometry analysis; assay type: functional, cell-based; settings: time 6.0 day
MCF7 [8] = assay: Synergistic cytotoxicity against human MCF7 cells assessed as combination index measured after 6 days in presence of 5 uM KU55933 by SRB assay; assay type: functional; settings: time 6 day
SW480 [9] = assay: Antagonistic cytotoxicity against human SW480 cells assessed as combination index measured after 3 days in presence of 5 uM KU60019 by SRB assay; assay type: functional; settings: time 3 day
[10] = biological target: T1, Serine-protein kinase ATM; assay: Inhibition of ATM (unknown origin) assessed as decrease in phosphorylation of KAP1 at 25 uM measured in presence of 1 to 5 uM KU60019 by Western blot analysis
[11] = biological target: T1, Serine-protein kinase ATM; assay: Inhibition of ATM (unknown origin) assessed as decrease in phosphorylation of p21 at 25 uM measured in presence of 50 nM AZD0156 by Western blot analysis
[12] = biological target: T1, Serine-protein kinase ATM; assay: Inhibition of ATM (unknown origin) assessed as decrease in phosphorylation of KAP1 at 25 uM measured in presence of 50 nM AZD0156 by Western blot analysis
SW480 [13] = assay: Antagonistic cytotoxicity against human SW480 cells measured after 3 days in presence of 5 uM KU60019 by SRB assay; assay type: functional, cell-based; settings: SW480, 72 h
MCF7 [14] = assay: Induction of cell cycle arrest in human MCF7 cells assessed as decrease in accumulation of cells at G1-phase in presence of 5 uM KU60019 measured after 24 hrs by PI staining based flow cytometric analysis; assay type: functional
[15] = biological target: T1, Serine-protein kinase ATM; assay: Inhibition of ATM (unknown origin) assessed as decrease in phosphorylation of p21 at 25 uM measured in presence of 5 uM KU60019 by Western blot analysis
[16] = biological target: T1, Serine-protein kinase ATM; assay: Inhibition of ATM (unknown origin) assessed as decrease in phosphorylation of ATM at 25 uM measured in presence of 50 nM AZD0156 by Western blot analysis
NCI-H1299 [17] = assay: Synergistic cytotoxicity against human NCI-H1299 cells assessed as combination index measured in presence of 50 nM AZD0156 after 2 days by SRB assay; assay type: functional; settings: time 2 day
SW480 [18] = assay: Antagonistic cytotoxicity against human SW480 cells measured after 3 days in presence of 50 nM AZD0156 by SRB assay; assay type: functional, cell-based; settings: SW480, 72 h
NCI-H1299 [19] = assay: Synergistic cytotoxicity against human NCI-H1299 cells assessed as combination index measured in presence of 5 uM KU60019 after 2 days by SRB assay; assay type: functional; settings: time 2 day
MCF7 [20] = assay: cells; settings: Homo sapiens, MCF7, 144 h; remark: listed apart in the source
NCI-H1299 [21] = assay: Synergistic cytotoxicity against human NCI-H1299 cells measured in presence of 5 uM KU60019 after 2 days by SRB assay; assay type: functional, cell-based; settings: NCI-H1299, 48 h
MCF7 [22] = assay: Antagonistic cytotoxicity against human MCF7 cells measured after 2 days in presence of 50 nM AZD0156 by SRB assay; assay type: functional, cell-based; settings: MCF7, 48 h
MCF7 [23] = assay: Induction of cell cycle arrest in human MCF7 cells assessed as accumulation of cells at S-phase in presence of 5 uM KU60019 measured after 24 hrs by PI staining based flow cytometric analysis; assay type: functional
[24] = biological target: T1, Serine-protein kinase ATM; assay: Inhibition of ATM (unknown origin) assessed as decrease in phosphorylation of ATM at 25 uM measured in presence of 1 to 5 uM KU60019 by Western blot analysis
NCI-H1299 [25] = assay: Synergistic cytotoxicity against human NCI-H1299 cells measured in presence of 50 nM AZD0156 after 2 days by SRB assay; assay type: functional, cell-based; settings: NCI-H1299, 48 h
NCI-H1299 [26] = assay: Additive cytotoxicity against human NCI-H1299 cells assessed as combination index measured in presence of 5 uM KU60019 after 2 days by SRB assay; assay type: functional; settings: time 2 day
SW480 [27] = assay: Antitumor activity against human SW480 cells xenografted in BALB/c nude mouse assessed as reduction in tumor weight at 20 mg/kg, ip; assay type: functional, organism-based
MCF7 [28] = assay: Additive cytotoxicity against human MCF7 cells measured after 6 days in presence of 5 uM KU55933 by SRB assay; assay type: functional; settings: time 6 day
NCI-H1299 [29] = assay: Additive cytotoxicity against human NCI-H1299 cells measured in presence of 5 uM KU60019 after 2 days by SRB assay; assay type: functional, cell-based; settings: NCI-H1299, 48 h
MCF7 [30] = assay: Antagonistic cytotoxicity against human MCF7 cells assessed as combination index in presence of 30 uM 3-Chloro-4-methoxy-N-((4-(oxazolo[4,5-b]pyridin-2-yl)phenyl)carbamothioyl)benzamide measured after 6 days by SRB assay; assay type: functional; settings: time 6 day
SW480 [31] = assay: Antitumor activity against human SW480 cells xenografted in BALB/c nude mouse assessed as reduction in tumor weight at 20 mg/kg, ip in presence of 30 mg/kg, iv 2(((2-(2,4-dichlorobenzyl)oxy)naphthalen-1-yl)methyl)amino)ethan-1-ol; assay type: functional, organism-based
NCI-H1299 [32] = assay: Antagonistic cytotoxicity against human NCI-H1299 cells assessed as combination index measured in presence of 50 nM AZD0156 after 2 days by SRB assay; assay type: functional; settings: time 2 day
NCI-H1299 [33] = assay: Antagonistic cytotoxicity against human NCI-H1299 cells measured in presence of 50 nM AZD0156 after 2 days by SRB assay; assay type: functional, cell-based; settings: NCI-H1299, 48 h
MCF7 [34] = assay: Additive cytotoxicity against human MCF7 cells assessed as combination index measured after 6 days in presence of 5 uM KU55933 by SRB assay; assay type: functional; settings: time 6 day
MCF7 [35] = assay: Antagonistic cytotoxicity against human MCF7 cells in presence of 30 uM 3-Chloro-4-methoxy-N-((4-(oxazolo[4,5-b]pyridin-2-yl)phenyl)carbamothioyl)benzamide measured after 6 days by SRB assay; assay type: functional, cell-based; settings: MCF7, 144 h
MCF7 [36] = assay: cells; settings: Homo sapiens, MCF7, 144 h; remark: listed apart in the source

T1 sequence (Q13315 whole entry): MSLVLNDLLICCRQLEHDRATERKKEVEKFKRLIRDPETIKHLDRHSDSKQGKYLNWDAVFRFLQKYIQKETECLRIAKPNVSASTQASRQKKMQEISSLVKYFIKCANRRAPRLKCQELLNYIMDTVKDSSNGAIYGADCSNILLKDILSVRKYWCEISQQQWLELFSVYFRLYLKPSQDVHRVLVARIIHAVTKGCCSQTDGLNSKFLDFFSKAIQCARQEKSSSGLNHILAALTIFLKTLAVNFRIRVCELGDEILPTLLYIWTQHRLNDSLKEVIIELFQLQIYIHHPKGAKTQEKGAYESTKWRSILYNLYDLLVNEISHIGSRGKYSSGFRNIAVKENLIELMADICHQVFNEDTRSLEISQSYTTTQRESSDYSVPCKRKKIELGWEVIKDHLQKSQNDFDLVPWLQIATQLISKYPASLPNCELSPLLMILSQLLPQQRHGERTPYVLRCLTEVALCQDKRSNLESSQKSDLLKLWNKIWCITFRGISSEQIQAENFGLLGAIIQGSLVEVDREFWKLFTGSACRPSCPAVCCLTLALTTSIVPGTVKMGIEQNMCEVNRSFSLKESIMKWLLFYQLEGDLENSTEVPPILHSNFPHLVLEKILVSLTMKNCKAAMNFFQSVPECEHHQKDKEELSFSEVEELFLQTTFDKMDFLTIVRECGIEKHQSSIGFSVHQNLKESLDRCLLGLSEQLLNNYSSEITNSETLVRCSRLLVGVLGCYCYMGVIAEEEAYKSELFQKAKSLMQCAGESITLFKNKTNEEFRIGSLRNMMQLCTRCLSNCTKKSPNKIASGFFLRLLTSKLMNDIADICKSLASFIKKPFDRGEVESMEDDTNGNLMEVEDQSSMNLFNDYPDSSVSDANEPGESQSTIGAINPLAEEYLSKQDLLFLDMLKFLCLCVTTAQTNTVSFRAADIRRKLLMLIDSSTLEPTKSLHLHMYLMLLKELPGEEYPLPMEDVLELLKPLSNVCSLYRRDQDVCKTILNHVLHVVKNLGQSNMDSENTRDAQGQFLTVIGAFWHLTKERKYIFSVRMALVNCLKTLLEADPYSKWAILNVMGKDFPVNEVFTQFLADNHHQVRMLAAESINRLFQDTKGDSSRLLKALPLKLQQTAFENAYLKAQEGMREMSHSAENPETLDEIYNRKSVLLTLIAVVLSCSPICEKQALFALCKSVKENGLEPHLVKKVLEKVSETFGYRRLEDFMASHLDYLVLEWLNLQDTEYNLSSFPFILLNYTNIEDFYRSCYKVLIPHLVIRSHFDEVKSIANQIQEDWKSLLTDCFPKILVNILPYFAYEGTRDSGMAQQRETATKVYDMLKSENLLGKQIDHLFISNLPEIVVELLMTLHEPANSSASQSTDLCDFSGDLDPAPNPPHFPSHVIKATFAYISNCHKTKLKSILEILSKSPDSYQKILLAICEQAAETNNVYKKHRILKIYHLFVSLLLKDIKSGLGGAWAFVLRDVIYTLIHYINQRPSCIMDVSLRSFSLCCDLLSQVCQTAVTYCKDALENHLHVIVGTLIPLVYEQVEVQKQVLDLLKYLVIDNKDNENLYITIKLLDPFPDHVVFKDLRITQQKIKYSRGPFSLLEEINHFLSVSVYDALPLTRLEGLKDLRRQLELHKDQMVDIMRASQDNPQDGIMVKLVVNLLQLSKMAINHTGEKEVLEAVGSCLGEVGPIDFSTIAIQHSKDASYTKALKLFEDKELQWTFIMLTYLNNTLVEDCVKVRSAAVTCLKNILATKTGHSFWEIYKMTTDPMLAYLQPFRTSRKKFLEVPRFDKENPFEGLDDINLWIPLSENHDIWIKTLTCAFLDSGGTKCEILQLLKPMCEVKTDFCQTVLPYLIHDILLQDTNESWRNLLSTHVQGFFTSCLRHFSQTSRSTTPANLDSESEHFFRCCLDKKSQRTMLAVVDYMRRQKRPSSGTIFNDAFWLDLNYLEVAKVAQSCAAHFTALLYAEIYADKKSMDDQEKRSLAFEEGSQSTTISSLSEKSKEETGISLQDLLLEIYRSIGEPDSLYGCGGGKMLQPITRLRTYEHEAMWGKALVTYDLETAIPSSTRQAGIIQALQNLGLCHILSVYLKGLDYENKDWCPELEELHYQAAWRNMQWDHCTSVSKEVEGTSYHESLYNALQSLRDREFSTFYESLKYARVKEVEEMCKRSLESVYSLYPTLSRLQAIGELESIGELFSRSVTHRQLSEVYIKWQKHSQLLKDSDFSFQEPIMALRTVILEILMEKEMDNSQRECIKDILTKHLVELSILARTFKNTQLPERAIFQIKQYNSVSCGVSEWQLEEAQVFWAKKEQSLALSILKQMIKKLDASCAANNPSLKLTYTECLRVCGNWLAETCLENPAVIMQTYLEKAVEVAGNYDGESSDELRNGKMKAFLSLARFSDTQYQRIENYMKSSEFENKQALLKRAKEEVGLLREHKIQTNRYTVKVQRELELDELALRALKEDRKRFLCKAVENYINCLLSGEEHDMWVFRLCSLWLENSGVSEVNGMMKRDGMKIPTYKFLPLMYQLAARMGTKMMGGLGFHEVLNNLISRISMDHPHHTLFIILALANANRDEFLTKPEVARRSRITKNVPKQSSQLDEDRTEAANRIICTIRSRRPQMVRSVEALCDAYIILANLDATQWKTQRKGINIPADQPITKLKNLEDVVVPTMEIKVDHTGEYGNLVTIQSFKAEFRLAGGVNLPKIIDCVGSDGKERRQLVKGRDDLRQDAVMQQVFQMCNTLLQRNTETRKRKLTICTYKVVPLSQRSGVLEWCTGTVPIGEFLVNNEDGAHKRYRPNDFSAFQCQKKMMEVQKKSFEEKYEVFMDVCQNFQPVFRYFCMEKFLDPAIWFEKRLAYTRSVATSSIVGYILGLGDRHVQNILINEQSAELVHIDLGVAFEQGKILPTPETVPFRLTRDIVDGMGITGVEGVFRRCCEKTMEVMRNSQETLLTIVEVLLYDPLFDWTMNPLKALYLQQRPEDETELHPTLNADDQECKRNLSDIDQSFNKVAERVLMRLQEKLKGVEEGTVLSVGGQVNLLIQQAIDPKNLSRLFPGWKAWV

## COc1cc([C@@H]2c3cc4c(cc3[C@@H](O[C@@H]3O[C@@H]5CO[C@@H](C)O[C@H]5[C@H](O)[C@H]3O)[C@H]3COC(=O)[C@H]23)OCO4)cc(OC)c1O [ETOPOSIDE]
MCF7 [1]
  Activity: Dde
MCF7 [2]
  Activity: Active
MCF7 [3]
  CI: 1.01
MCF7 [4]
  CI: 2.7
MCF7 [5]
  IC50: 0.56 µM
[6]
  inhibition: 25%
MCF7 [7]
  Activity: Active
MCF7 [8]
  CI: 0.73
SW480 [9]
  CI: 1.7
[10]
  inhibition: Active
[11]
  inhibition: 41%
[12]
  inhibition: Active
SW480 [13]
  IC50: 3.8 µM
MCF7 [14]
  Activity: Active
[15]
  inhibition: 53%
[16]
  inhibition: Active
NCI-H1299 [17]
  CI: 0.82
SW480 [18]
  IC50: 3.6 µM
NCI-H1299 [19]
  CI: 0.84
MCF7 [20]
  IC50: 0.59 µM
NCI-H1299 [21]
  IC50: 5.75 µM
MCF7 [22]
  IC50: 62.7 µM
MCF7 [23]
  Activity: Active
[24]
  inhibition: Active
NCI-H1299 [25]
  IC50: 8.86 µM

## CCc1c2c(nc3ccc(OC(=O)N4CCC(N5CCCCC5)CC4)cc13)-c1cc3c(c(=O)n1C2)COC(=O)[C@]3(O)CC [IRINOTECAN]
NCI-H1299 [26]
  CI: 1.04
MCF7 [4]
  CI: 1.4
SW480 [27]
  Activity: Active
MCF7 [28]
  CI: 0.16
SW480 [9]
  CI: 3.4
NCI-H1299 [29]
  IC50: 9.83 µM
MCF7 [30]
  CI: 1.49
SW480 [31]
  Activity: Active
SW480 [13]
  IC50: 15.4 µM
NCI-H1299 [32]
  CI: 1.13
NCI-H1299 [33]
  IC50: 15.2 µM
MCF7 [34]
  CI: 0.18
MCF7 [35]
  IC50: 2.42 µM
MCF7 [36]
  IC50: 0.21 µM
MCF7 [22]
  IC50: 39.2 µM
